Earlier results, collected in patent EP0975321B1, “THE USE OF THIOGLYCOLIC ACID AS DEPIGMENTING AGENT” (I.V. Pharma S.A.S., priority 1997, dated 1998).

Conditions: Acidic strength; Table 1

| SMILES | pKa value |
| --- | --- |
| O=C(O)CS [Tioglycolic acid, 2-mercaptoacetic acid] | 3.68 |
| O=C(O)C(Cl)(Cl)Cl [Trichloroacetic acid] | 0.70 |
